Where a name gives a salt, the structure may show the parent alone.
Legend:
[1] = system: ID188 patient-derived PDAC 2D line (pre-FOLFIRINOX); assay: normalised area under dose-response curve (viability relative to DMSO, 7 doses up to 10 µM) (fraction (AUC)); higher = less sensitive (more viability retained); details: 72 h; top dose: 10 µM
Outline: (§1)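 2D PDAC cells grown out from patient-derived organoids were robotically seeded in 96-well plates at 1,500–3,000 cells/well and kept overnight at 37°C in 5% CO2. Compounds from a SelleckChem library were then applied for 72 h at seven concentrations, made as a 3-fold dilution series with 10 µM as the highest. CellTiter-Glo luminescence was measured 10 min later. Viability was normalised to control wells, and the GRmetrics R package was used to derive the area under the dose-response curve.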

[2] = system: ID211 patient-derived PDAC 2D line (post-FOLFIRINOX); assay: as above; details: 72 h; top dose: 10 µM
Outline: as §1

Cc1cc(O)c(-c2ccc([C@@H](C)CN)cc2)c2c1[nH]c(=O)c1sccc12 [OTS514 hydrochloride]
normalised area under dose-response curve [1]: 0.368 | normalised area under dose-response curve [2]: 0.443

Cc1sc2c(c1C)C(c1ccc(Cl)cc1)=N[C@@H](CC(=O)Nc1ccc(O)cc1)c1nnc(C)n1-2 [OTX015]
normalised area under dose-response curve [1]: 0.817 | normalised area under dose-response curve [2]: 0.631

COC[C@H](NC(=O)c1cnc(C)s1)C(=O)N[C@@H](COC)C(=O)N[C@@H](Cc1ccccc1)C(=O)[C@@]1(C)CO1 [Oprozomib (ONX 0912)]
normalised area under dose-response curve [1]: 0.427 | normalised area under dose-response curve [2]: 0.333

Cc1[nH]c(/C=C2\C(=O)Nc3ccccc32)c(C)c1CCC(=O)O [Orantinib (TSU-68, SU6668)]
normalised area under dose-response curve [1]: 0.845 | normalised area under dose-response curve [2]: 0.843

C=CC(=O)Nc1cc(Nc2nccc(-c3cn(C)c4ccccc34)n2)c(OC)cc1N(C)CCN(C)C [Osimertinib (AZD9291)]
normalised area under dose-response curve [1]: 0.855 | normalised area under dose-response curve [2]: 0.749

O=C(O)C(=O)O.[NH-][C@@H]1CCCC[C@H]1[NH-].[Pt+2] [Oxaliplatin]
normalised area under dose-response curve [1]: 0.901 | normalised area under dose-response curve [2]: 0.844

Cc1cc(CS(=O)(=O)c2ccccc2)cc(OCc2ccc(CN3CCC[C@@H]3CO)cc2)c1 [PF-543]
normalised area under dose-response curve [1]: 0.924 | normalised area under dose-response curve [2]: 0.903

O=C(Nc1cccnc1)N1CCC(Cc2cccc(Oc3ccc(C(F)(F)F)cn3)c2)CC1 [PF-3845]
normalised area under dose-response curve [1]: 0.905 | normalised area under dose-response curve [2]: 0.912

COc1ccccc1C(=O)Nc1cc2c(cc1N1CCCC1)n(C)c(=O)n2C [PFI-4]
normalised area under dose-response curve [1]: 0.955 | normalised area under dose-response curve [2]: 0.787

O=C(/C=C/c1ccc2ccccc2n1)c1ccncc1 [PFK15]
normalised area under dose-response curve [1]: 0.911 | normalised area under dose-response curve [2]: 0.778

CCCCCCCCCCCCc1ccc(S(=O)(=O)Nc2nncs2)cc1 [PHT-427]
normalised area under dose-response curve [1]: 0.871 | normalised area under dose-response curve [2]: 0.931

CC(=O)Nc1nc(C)c(-c2ccc(Cl)c(S(=O)(=O)NCCO)c2)s1 [PIK-93]
normalised area under dose-response curve [1]: 0.927 | normalised area under dose-response curve [2]: 0.807

CCCS(=O)(=O)Nc1ccc(F)c(C(=O)c2c[nH]c3ncc(Cl)cc23)c1F [PLX-4720]
normalised area under dose-response curve [1]: 0.886 | normalised area under dose-response curve [2]: 0.842

N#CSc1cc(SC#N)c(N)nc1N [PR-619]
normalised area under dose-response curve [1]: 0.921 | normalised area under dose-response curve [2]: 0.875

O=C1C2CCN(CC2)C1(CO)CO [PRIMA-1]
normalised area under dose-response curve [1]: 0.947 | normalised area under dose-response curve [2]: 0.867

O=C1C(=Cc2cccnc2)C(=O)c2ccccc21 [PRT4165]
normalised area under dose-response curve [1]: 0.875 | normalised area under dose-response curve [2]: 0.746

O=C(Nc1cc(Cl)cc2c1[nH]c1cnccc12)c1cccnc1 [PS-1145]
normalised area under dose-response curve [1]: 0.923 | normalised area under dose-response curve [2]: 0.839

COc1cc(Br)c(Nc2nc(-c3c(C)nc4ncccn34)cs2)c(Br)c1 [PTC-209 HBr]
normalised area under dose-response curve [1]: 0.836 | normalised area under dose-response curve [2]: 0.819

CCC(C)SSc1ncc[nH]1 (stereo unspecified) [PX-12]
normalised area under dose-response curve [1]: 0.985 | normalised area under dose-response curve [2]: 0.903

CCOC(=O)c1ccc(N2NC(=O)C(=Cc3ccc([N+](=O)[O-])o3)C2=O)cc1 [PYR-41]
normalised area under dose-response curve [1]: 0.91 | normalised area under dose-response curve [2]: 0.807

CC(=O)O[C@H]1C(=O)[C@@]2(C)[C@H]([C@H](OC(=O)c3ccccc3)[C@]3(O)C[C@H](OC(=O)[C@H](O)[C@@H](NC(=O)c4ccccc4)c4ccccc4)C(C)=C1C3(C)C)[C@]1(OC(C)=O)CO[C@@H]1C[C@@H]2O [Paclitaxel]
normalised area under dose-response curve [1]: 0.432 | normalised area under dose-response curve [2]: 0.444

Cc1[nH]c2ccccc2c1CCNCc1ccc(/C=C/C(=O)NO)cc1 [Panobinostat (LBH589)]
normalised area under dose-response curve [1]: 0.421 | normalised area under dose-response curve [2]: 0.306

CCOc1cc2ncc(C#N)c(Nc3ccc(F)c(Cl)c3)c2cc1NC(=O)/C=C/CN(C)C [Pelitinib (EKB-569)]
normalised area under dose-response curve [1]: 0.846 | normalised area under dose-response curve [2]: 0.631

NS(=O)(=O)OC[C@@H]1C[C@@H](n2ccc3c(N[C@H]4CCc5ccccc54)ncnc32)C[C@@H]1O [Pevonedistat (MLN4924)]
normalised area under dose-response curve [1]: 0.825 | normalised area under dose-response curve [2]: 0.589

CS(=O)(=O)N1CCN(Cc2cc3nc(-c4cccc5[nH]ncc45)nc(N4CCOCC4)c3s2)CC1 [Pictilisib (GDC-0941)]
normalised area under dose-response curve [1]: 0.683 | normalised area under dose-response curve [2]: 0.596

CC(C)N(C[C@H]1O[C@@H](n2cnc3c(N)ncnc32)[C@H](O)[C@@H]1O)[C@H]1C[C@@H](CCc2nc3cc(C(C)(C)C)ccc3[nH]2)C1 [Pinometostat (EPZ5676)]
normalised area under dose-response curve [1]: 0.916 | normalised area under dose-response curve [2]: 0.8

CC(C)(C)c1[nH]cnc1/C=c1\[nH]c(=O)/c(=C/c2ccccc2)[nH]c1=O [Plinabulin (NPI-2358)]
normalised area under dose-response curve [1]: 0.588 | normalised area under dose-response curve [2]: 0.355

C=CC(=O)N1CCC(Oc2cc3c(Nc4ccc(Cl)c(Cl)c4F)ncnc3cc2OC)CC1 [Poziotinib (HM781-36B)]
normalised area under dose-response curve [1]: 0.908 | normalised area under dose-response curve [2]: 0.54

CCCCc1nc2cc(/C=C/C(=O)NO)ccc2n1CCN(CC)CC [Pracinostat (SB939)]
normalised area under dose-response curve [1]: 0.778 | normalised area under dose-response curve [2]: 0.799

CC(C)(C)c1cc(NC(=O)Nc2ccc(-c3cn4c(n3)sc3cc(OCCN5CCOCC5)ccc34)cc2)no1 [Quizartinib (AC220)]
normalised area under dose-response curve [1]: 0.974 | normalised area under dose-response curve [2]: 0.809

Nc1cc(F)ccc1NC(=O)/C=C/c1cnn(C/C=C/c2ccccc2)c1 [RGFP966]
normalised area under dose-response curve [1]: 0.911 | normalised area under dose-response curve [2]: 0.779

Cc1cc2c3c([n+](C)c4ccc(F)cc4c3c1)-c1cc(F)ccc1N2C [RHPS 4 methosulfate]
normalised area under dose-response curve [1]: 0.945 | normalised area under dose-response curve [2]: 0.906

O=C(NCc1cccc(O)c1)Nc1nc(-c2ccncc2)cs1 [RKI-1447]
normalised area under dose-response curve [1]: 1.04 | normalised area under dose-response curve [2]: 0.962

O=C(CBr)N1CC([N+](=O)[O-])([N+](=O)[O-])C1 [RRx-001]
normalised area under dose-response curve [1]: 0.915 | normalised area under dose-response curve [2]: 0.843

COC(=O)c1ccc([C@H]2c3[nH]c4ccccc4c3C[C@H](C(=O)OC)N2C(=O)CCl)cc1 [RSL3]
normalised area under dose-response curve [1]: 0.465 | normalised area under dose-response curve [2]: 0.175

CNC(=O)c1cc(Oc2ccc(NC(=O)Nc3cc(C(C)(C)C)nn3-c3ccc4ncccc4c3)c(F)c2)ccn1 [Rebastinib (DCC-2036)]
normalised area under dose-response curve [1]: 0.853 | normalised area under dose-response curve [2]: 0.885

CNC(=O)c1cc(Oc2ccc(NC(=O)Nc3ccc(Cl)c(C(F)(F)F)c3)c(F)c2)ccn1 [Regorafenib (BAY 73-4506)]
normalised area under dose-response curve [1]: 0.775 | normalised area under dose-response curve [2]: 0.936

N#Cc1ccc(-c2csc(NN=C3CCCC3)n2)cc1 [Remodelin]
normalised area under dose-response curve [1]: 0.941 | normalised area under dose-response curve [2]: 0.854

CN(C)C(=O)c1cc2cnc(Nc3ccc(N4CCNCC4)cn3)nc2n1C1CCCC1 [Ribociclib (LEE011)]
normalised area under dose-response curve [1]: 0.961 | normalised area under dose-response curve [2]: 0.812

C/C=C1\NC(=O)[C@H]2CSSCC/C=C/[C@H](CC(=O)N[C@H](C(C)C)C(=O)N2)OC(=O)[C@H](C(C)C)NC1=O [Romidepsin]
normalised area under dose-response curve [1]: 0.138 | normalised area under dose-response curve [2]: 0.171

Cc1nc(C(=O)NCC(=O)O)c(O)c2ccc(Oc3ccccc3)cc12 [Roxadustat (FG-4592)]
normalised area under dose-response curve [1]: 0.951 | normalised area under dose-response curve [2]: 0.842

O=C(NNc1nc2cc(F)ccc2n2cccc12)c1cnccn1 [SC144]
normalised area under dose-response curve [1]: 0.795 | normalised area under dose-response curve [2]: 0.631

CC(C)(C)C(=O)Nc1ccc2c(c1)C(=O)C(=O)c1ccccc1-2 [SF1670]
normalised area under dose-response curve [1]: 0.966 | normalised area under dose-response curve [2]: 0.809

O=c1cc(N2CCOCC2)oc2c(-c3ccc4c(c3)OCCO4)csc12 [SF2523]
normalised area under dose-response curve [1]: 0.968 | normalised area under dose-response curve [2]: 0.768

O=C(NCC(=O)N1CCCC1)Nc1ccc2cnccc2c1 [SGC707]
normalised area under dose-response curve [1]: 0.955 | normalised area under dose-response curve [2]: 0.863

CC(C)N(CCCNC(=O)Nc1ccc(C(C)(C)C)cc1)C[C@H]1O[C@@H](n2cc(Br)c3c(N)ncnc32)[C@H](O)[C@@H]1O [SGC 0946]
normalised area under dose-response curve [1]: 0.94 | normalised area under dose-response curve [2]: 0.809

COc1ccc(CCc2nc3cc(-c4c(C)noc4C)ccc3n2C[C@H](C)N2CCOCC2)cc1Cl [SGC-CBP30]
normalised area under dose-response curve [1]: 0.984 | normalised area under dose-response curve [2]: 0.951

Cc1cc(Nc2ccc(NC(=O)c3ccc(Nc4ccnc5ccccc45)cc3)cc2)nc(N)n1 [SGI-1027]
normalised area under dose-response curve [1]: 0.662 | normalised area under dose-response curve [2]: 0.569

CN1CCC(CNc2ccc3ncc(-c4cccc(OC(F)(F)F)c4)n3n2)CC1 [SGI-1776 free base]
normalised area under dose-response curve [1]: 0.949 | normalised area under dose-response curve [2]: 0.788

Cc1c[nH]c2nc(Nc3ccc(N4CCN(C)CC4)c(F)c3)nc(-c3cccc(CC#N)c3)c12 [SGI-7079]
normalised area under dose-response curve [1]: 0.803 | normalised area under dose-response curve [2]: 0.638

Cn1cc(-c2ccc3nnc(Sc4ccc5ncccc5c4)n3n2)cn1 [SGX-523]
normalised area under dose-response curve [1]: 0.983 | normalised area under dose-response curve [2]: 0.941

CC1(N)CCN(c2cnc(-c3cccc(Cl)c3Cl)c(N)n2)CC1 [SHP099 dihydrochloride]
normalised area under dose-response curve [1]: 0.963 | normalised area under dose-response curve [2]: 0.91

C=CCNc1ncnc2ccc(Br)cc12 [SMER28]
normalised area under dose-response curve [1]: 0.997 | normalised area under dose-response curve [2]: 0.825
